Test results: US5352587A, “Compositions and methods for the synthesis of natriuretic protein receptor B and methods of use” (Genentech, Inc., priority 1991, dated 1994)
Ends that are not written are not given here.

Columns and labels:
[1] = target: T1, NPRB lacking its kinase and guanylyl cyclase domains (BDKC) (Homo sapiens, UniProt P20594); assay: Scatchard analysis of binding to 293 cells expressing NPRB less the kinase and cyclase domains (BDKC); conditions: two hours at room temperature (21° C.), LIGAND program, read-out: dissociation constant (Kd)
T1 construct: expressed in transfected cells
T1 sequence (P20594 23-501): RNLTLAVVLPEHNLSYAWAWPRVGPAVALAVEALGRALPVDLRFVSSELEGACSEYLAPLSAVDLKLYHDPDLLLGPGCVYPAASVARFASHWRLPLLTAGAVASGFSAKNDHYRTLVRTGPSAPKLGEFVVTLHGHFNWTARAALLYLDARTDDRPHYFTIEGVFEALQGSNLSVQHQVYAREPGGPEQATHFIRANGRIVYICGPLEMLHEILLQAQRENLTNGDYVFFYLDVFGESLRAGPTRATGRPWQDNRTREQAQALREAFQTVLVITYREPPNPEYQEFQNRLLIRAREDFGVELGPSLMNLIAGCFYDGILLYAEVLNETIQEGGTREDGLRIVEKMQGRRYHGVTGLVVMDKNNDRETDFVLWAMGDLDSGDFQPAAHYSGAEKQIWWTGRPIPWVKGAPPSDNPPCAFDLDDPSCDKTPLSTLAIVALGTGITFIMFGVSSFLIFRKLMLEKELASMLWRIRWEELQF
Source text: Scatchard analysis was used to determine the binding affinities of the natriuretic peptides for NPRB. An expression vector using pRK was constructed such that the NPRB lacked its kinase and guanylyl cyclase domains. This mutation was effected by introduction of a termination codon at condo 480 of the mature NPRB protein. A recombinant cell line expressing NPRB less the kinase and cyclase domains (BDKC) was developed by calcium phosphate transfection of 293 cells as described above. These stable cell lines were screened for expression of BDKC by binding of porcine BNP which contained 26 amino acids (^125 l-pBNP[26]). […] Binding was allowed to proceed to equilibrium by incubation for two hours at room temperature (21° C.), the bound ^125 l-pBNP(26) was separated from unbound by centrifugation for 7 minutes at 4° C. The supernatant was aspirated and the cell pellet was counted in a gamma counter for ^125 l quantitation. Background binding was subtracted from total binding to give specific binding and the specific binding vs. dose of ^125 l-pBNA data was analyzed by the LIGAND program of Munson and Rodbard (Analytical Biochemistry 107, 220-239 [1980]). The results shown are in FIG. 5.

soluble NPRB = assay: Binding to soluble NPRB extracellular domain (1-433) in concentrated conditioned medium; set-up: species or system human
Description: Soluble extracellular domain of NPRB was engineered by introducing a translation termination codon at position 434 to produce the 1-433 fragment of the NPRB sequence illustrated in FIG. 1. A stable cell line was developed in 293 cells as described for 293NPRBDKC, and clones were screened by binding of ^125 lBNP to receptor in condition medium. Control 293 cells or the stable cell line 293BCF.15 (NPRB cell free) were plated 24 hours prior to the addition of serum free conditioned medium. Medium was left on the cells for 72 hours then collected for analysis of the […] synthesized. The media was vacuum filtered through a […] filter (Millipore Corp) then concentrated 8-fold by ultrafiltration on an Amicon Corp centriprep YM30 membrane. A 0.5 ml sample of concentrated conditioned media was incubated for one hour in the presence of 0.25 mCi of ^125 l-pBNP(26) (2462 Ci/mmole) with (background binding) or without (total binding) 1.2 mM pBNP(26). A 1.0 ml sample of activated charcoal solution (Fuller et al. J. Biol. Chem. 264, 14179-14184 [1989]) was added to absorb unbound label and recovered by centrifugation. The supernatant (1.4 ml) was removed for determination of ^125 l-pBNP bound to receptor by gamma counting. Specific binding was calculated from the difference between total binding minus background binding. […]

[2] = target: 130 kDa ANP receptor-GC from adrenal glomerulosa; conditions: literature refs 10, 11; cited from earlier work
[3] = test system: active site of protein kinases; conditions: literature refs 12, 13; cited from earlier work
membrane GC = conditions: literature refs 14, 15; cited from earlier work

^125 l-pBNP(26): porcine BNP which contained 26 amino acids, ^125 l labelled (DSGCFGRRLDRIGSLSGLGCNVLRRY; ends and bridges not checked; also: 125I label, position not given here; UniProt P07634 106-131, looked up)
Kd [1]: 0.0667 nM | Specific binding to soluble NPRB (soluble NPRB; 0.25 mCi ^125 l-pBNP(26), one hour, 8-fold concentrated conditioned medium): 31,837 cpm | Specific binding due to the recombinant soluble receptor protein (difference from control 293 cells) (soluble NPRB; difference between soluble NPRB and control 293 cells): 29,177 cpm

N=C(N)NC(=O)c1nc(Cl)c(N)nc1N [amiloride]
effect on receptor conformation and Kd for ANP [2]: change in receptor conformation and a lowering of the Kd for ANP | inhibition of ATP binding to the active site of protein kinases [3]: competitive inhibitor of ATP binding to the active site of protein kinases

Nc1ncnc2c1ncn2[C@@H]1O[C@H](COP(=O)(O)OP(=O)(O)OP(=O)(O)O)[C@@H](O)[C@H]1O [ATP]
effect on Vmax of membrane GC in response to ANP stimulation (membrane GC): increasing the Vmax of membrane GC in response to ANP stimulation
